# Laboratory results taken from patent US8435978B2, “Substituted sulfonamide compounds” (Gruenenthal GmbH, priority 2006, dated 2013).
# What was measured:
# human B1R receptor = target: T1, human B1R receptor (Homo sapiens, UniProt P46663); assay: Functional study on the bradykinin receptor 1 (B1R), FLIPR Ca2+ assay, hB1R cells; format: cell-based; settings: CHO-K1, test substance 10 μM, agonist Lys-Des-Arg9-bradykinin 0.5 nM, % inhibition compared with the maximum achievable inhibition, read-out: B1R Antagonism, human [10 μM] % Inhibition
# T1 construct: host or cells: CHO K1 cells (Chinese hamster ovary), stably transfected
# T1 sequence (P46663 1-353): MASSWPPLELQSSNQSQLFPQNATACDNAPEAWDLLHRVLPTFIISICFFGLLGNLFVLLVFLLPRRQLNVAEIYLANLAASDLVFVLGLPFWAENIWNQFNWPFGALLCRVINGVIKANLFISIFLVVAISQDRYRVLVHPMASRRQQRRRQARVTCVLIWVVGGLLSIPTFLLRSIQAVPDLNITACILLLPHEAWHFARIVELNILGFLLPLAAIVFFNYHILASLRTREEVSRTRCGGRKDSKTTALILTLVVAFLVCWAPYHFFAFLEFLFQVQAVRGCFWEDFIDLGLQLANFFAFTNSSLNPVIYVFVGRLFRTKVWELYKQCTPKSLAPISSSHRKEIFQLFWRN
# How it was run: (§1)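 CHO K1 cells stably expressing human or rat B1R were loaded with Fluo-4 and read on a FLIPR (ex 488/em 540 nm, peak fluorescence). Test compounds at 10 μM were added first, then after 10 min agonist: Lys-Des-Arg9-bradykinin 0.5 nM for hB1R, Des-Arg9-bradykinin 100 nM for rB1R; % inhibition versus maximum inhibition.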
# B1R receptor of the rat = target: T2, B1R receptor of the rat (Rattus norvegicus, UniProt P97583); assay: Functional study on the bradykinin receptor 1 (B1R), FLIPR Ca2+ assay, rB1R cells; format: cell-based; settings: CHO-K1, test substance 10 μM, agonist Des-Arg9-bradykinin 100 nM, % inhibition compared with the maximum achievable inhibition, read-out: B1R Antagonism, rat [10 μM] % Inhibition
# T2 construct: host or cells: CHO K1 cells (Chinese hamster ovary), stably transfected
# T2 sequence (P97583 1-337): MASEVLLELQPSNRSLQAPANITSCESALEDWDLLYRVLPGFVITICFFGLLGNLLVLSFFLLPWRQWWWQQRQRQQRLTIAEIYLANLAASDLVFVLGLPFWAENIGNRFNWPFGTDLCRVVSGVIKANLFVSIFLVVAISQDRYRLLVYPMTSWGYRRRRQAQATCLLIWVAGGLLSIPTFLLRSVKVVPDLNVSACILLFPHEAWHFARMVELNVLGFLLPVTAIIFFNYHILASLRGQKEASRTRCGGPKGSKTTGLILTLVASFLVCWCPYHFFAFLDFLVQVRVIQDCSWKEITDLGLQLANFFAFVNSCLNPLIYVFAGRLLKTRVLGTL
# How it was run: as §1
SMILES,inhibition at 10 µM (human B1R receptor),inhibition at 10 µM (B1R receptor of the rat)
"COc1cc(C)c(S(=O)(=O)N2CCCC2COCC(=O)NC(CN2CCOCC2)c2ccccc2)c(C)c1 (stereo not drawn) [Example 500, 2-((1-(4-methoxy-2,6-dimethylphenylsulfonyl)pyrrolidin-2-yl)methoxy)-N-(2-morpholino-1-phenylethyl)acetamide]",41.8%,93.2%
"COc1cc(C)c(S(=O)(=O)N2CCCC2COCC(=O)Nc2ccc3cnn(C)c3c2)c(C)c1 (stereo not drawn) [Example 501, 2-((1-(4-methoxy-2,6-dimethylphenylsulfonyl)pyrrolidin-2-yl)methoxy)-N-(1-methyl-1H-indazol-6-yl)acetamide]",65.1%,89.7%
"COc1cc(C)c(S(=O)(=O)N2CCCC2COCC(=O)NCC(c2ccccc2Cl)N2CCCC2)c(C)c1 (stereo not drawn) [Example 502, N-(2-(2-chlorophenyl)-2-(pyrrolidin-1-yl)ethyl)-2-((1-(4-methoxy-2,6-dimethylphenylsulfonyl)pyrrolidin-2-yl)methoxy)acetamide]",96.7%,103%
"COc1cc(OC)cc(N2CCN(C(=O)COCC3CCCN3S(=O)(=O)c3c(C)cc(OC)cc3C)CC2)c1 (stereo not drawn) [Example 503, 1-(4-(3,5-dimethoxyphenyl)piperazin-1-yl)-2-((1-(4-methoxy-2,6-dimethylphenylsulfonyl)pyrrolidin-2-yl)methoxy)ethanone]",103%,97.9%
"COc1cc(C)c(S(=O)(=O)N2CCCC2COCC(=O)Nc2nc3ccccc3n2C)c(C)c1 (stereo not drawn) [Example 504, 2-((1-(4-methoxy-2,6-dimethylphenylsulfonyl)pyrrolidin-2-yl)methoxy)-N-(1-methyl-1H-benzo[d]imidazol-2-yl)acetamide]",24.2%,90.6%
"COc1cc(C)c(S(=O)(=O)N2CCCC2COCC(=O)NC(CN2CCCC2)c2ccccc2)c(C)c1 (stereo not drawn) [Example 505, 2-((1-(4-methoxy-2,6-dimethylphenylsulfonyl)pyrrolidin-2-yl)methoxy)-N-(1-phenyl-2-(pyrrolidin-1-yl)ethyl)acetamide]",74%,101%
"N#CCCN1CCN(C(=O)COCC2CCCCN2S(=O)(=O)c2c(Cl)cccc2Cl)CC1 (stereo not drawn) [Example 506, 3-(4-(2-((1-(2,6-dichlorophenylsulfonyl)piperidin-2-yl)methoxy)acetyl)piperazin-1-yl)propanenitrile]",98.3%,98.9%
"COc1cc(C)c(S(=O)(=O)N2CCCCC2COCC(=O)N(Cc2ccccc2)c2cc(C)ccn2)c(C)c1 (stereo not drawn) [Example 507, N-benzyl-2-((1-(4-methoxy-2,6-dimethylphenylsulfonyl)piperidin-2-yl)methoxy)-N-(4-methylpyridin-2-yl)acetamide]",-10.1%,102%
"COc1cc(C)c(S(=O)(=O)N2CCCCC2COCC(=O)N(Cc2ccccc2)c2cccc(C)n2)c(C)c1 (stereo not drawn) [Example 508, N-benzyl-2-((1-(4-methoxy-2,6-dimethylphenylsulfonyl)piperidin-2-yl)methoxy)-N-(6-methylpyridin-2-yl)acetamide]",31.9%,103%
"COc1cc(C)c(S(=O)(=O)N2CCCCC2COCC(=O)N2CCN(c3cccc(C(F)(F)F)c3)CC2)c(C)c1 (stereo not drawn) [Example 509, 2-((1-(4-methoxy-2,6-dimethylphenylsulfonyl)piperidin-2-yl)methoxy)-1-(4-(3-(trifluoromethyl)phenyl)piperazin-1-yl)ethanone]",92.7%,102%
"CCN(Cc1ccncc1)C(=O)COCC1CCCCN1S(=O)(=O)c1c(C)cc(OC)cc1C (stereo not drawn) [Example 510, N-ethyl-2-((1-(4-methoxy-2,6-dimethylphenylsulfonyl)piperidin-2-yl)methoxy)-N-(pyridin-4-ylmethyl)acetamide]",51.4%,102%
"COc1cc(C)c(S(=O)(=O)N2CCCCC2COCC(=O)N2CCN(c3cccc(Cl)c3)CC2)c(C)c1 (stereo not drawn) [Example 511, 1-(4-(3-chlorophenyl)piperazin-1-yl)-2-((1-(4-methoxy-2,6-dimethylphenylsulfonyl)piperidin-2-yl)methoxy)ethanone]",87%,103%
"COc1cc(C)c(S(=O)(=O)N2CCCCC2COCC(=O)N2CCN(c3ccc(C)c(C)c3)CC2)c(C)c1 (stereo not drawn) [Example 512, 1-(4-(3,4-dimethylphenyl)piperazin-1-yl)-2-((1-(4-methoxy-2,6-dimethylphenylsulfonyl)piperidin-2-yl)methoxy)ethanone]",93%,102%
"COc1cc(C)c(S(=O)(=O)N2CCCCC2COCC(=O)N2CCN(c3ncccc3C#N)CC2)c(C)c1 (stereo not drawn) [Example 513, 2-(4-(2-((1-(4-methoxy-2,6-dimethylphenylsulfonyl)piperidin-2-yl)methoxy)acetyl)piperazin-1-yl)nicotinonitrile]",73.5%,101%
"COc1cc(C)c(S(=O)(=O)N2CCCCC2COCC(=O)N2CCN(c3ccc(C(F)(F)F)cn3)CC2)c(C)c1 (stereo not drawn) [Example 514, 2-((1-(4-methoxy-2,6-dimethylphenylsulfonyl)piperidin-2-yl)methoxy)-1-(4-(5-(trifluoromethyl)pyridin-2-yl)piperazin-1-yl)ethanone]",85.2%,99%
"Cc1cccc(N(Cc2ccccc2)C(=O)COCC2CCCCN2S(=O)(=O)c2cc(Cl)sc2Cl)n1 (stereo not drawn) [Example 515, N-benzyl-2-((1-(2,5-dichlorothiophen-3-ylsulfonyl)piperidin-2-yl)methoxy)-N-(6-methylpyridin-2-yl)acetamide]",30.9%,100%
"COc1cc(C)c(S(=O)(=O)N2CCCC2COCC(=O)N2CCN(c3ccccc3F)CC2)c(C)c1 (stereo not drawn) [Example 516, 1-(4-(2-fluorophenyl)piperazin-1-yl)-2-((1-(4-methoxy-2,6-dimethylphenylsulfonyl)pyrrolidin-2-yl)methoxy)ethanone]",101%,99.4%
"CCN1CCN(C(=O)COCC2CCCN2S(=O)(=O)c2c(C)cc(OC)cc2C)CC1 (stereo not drawn) [Example 517, 1-(4-ethylpiperazin-1-yl)-2-((1-(4-methoxy-2,6-dimethylphenylsulfonyl)pyrrolidin-2-yl)methoxy)ethanone]",98.8%,102%
"COc1cc(C)c(S(=O)(=O)N2CCCC2COCC(=O)N2CCC(N3CCCC3)CC2)c(C)c1 (stereo not drawn) [Example 518, 2-((1-(4-methoxy-2,6-dimethylphenylsulfonyl)pyrrolidin-2-yl)methoxy)-1-(4-(pyrrolidin-1-yl)piperidin-1-yl)ethanone]",103%,99.7%
"COc1cc(C)c(S(=O)(=O)N2CCCC2COCC(=O)N2CCC(N3CCOCC3)CC2)c(C)c1 (stereo not drawn) [Example 519, 2-((1-(4-methoxy-2,6-dimethylphenylsulfonyl)pyrrolidin-2-yl)methoxy)-1-(4-morpholinopiperidin-1-yl)ethanone]",81.9%,103%
"COc1cc(C)c(S(=O)(=O)N2CCCC2COCC(=O)N2CCC(N3CCCCC3)CC2)c(C)c1 (stereo not drawn) [Example 520, 1-(1,4′-bipiperidin-1′-yl)-2-((1-(4-methoxy-2,6-dimethylphenylsulfonyl)pyrrolidin-2-yl)methoxy)ethanone]",103%,102%
"COc1cc(C)c(S(=O)(=O)N2CCCC2COCC(=O)NCCCN2CCN(Cc3ccccc3)CC2)c(C)c1 (stereo not drawn) [Example 521, N-(3-(4-benzylpiperazin-1-yl)propyl)-2-((1-(4-methoxy-2,6-dimethylphenylsulfonyl)pyrrolidin-2-yl)methoxy)acetamide]",85.2%,99.3%
"COc1cc(C)c(S(=O)(=O)N2CCCC2COCC(=O)NCCCN2CCCCC2)c(C)c1 (stereo not drawn) [Example 522, 2-((1-(4-methoxy-2,6-dimethylphenylsulfonyl)pyrrolidin-2-yl)methoxy)-N-(3-(piperidin-1-yl)propyl)acetamide]",54.2%,98.7%
"COc1cc(C)c(S(=O)(=O)N2CCCC2COCC(=O)NCCCCN2CCCC2)c(C)c1 (stereo not drawn) [Example 523, 2-((1-(4-methoxy-2,6-dimethylphenylsulfonyl)pyrrolidin-2-yl)methoxy)-N-(4-(pyrrolidin-1-yl)butyl)acetamide]",66.4%,101%
